The results in this text go back to US20120142771A1, “BIPHENYLACETAMIDE DERIVATIVE” (Dainippon Sumitomo Pharma Co., Ltd., priority 2008, published 2012).

The subject of series [1] is maximum electroshock seizure (MES) model. The experiment in a line: Maximum electroshock seizure (MES) model test. Type of series: in vivo, mice. Particulars: for responders at 50 mg/kg / responders at 100 mg/kg: Mus musculus, po, 1 h, read-out: MES (positive number/tested number) (converted); for responders at 50 mg/kg / responders at 100 mg/kg / MES (positive number/tested number): Slc: ddY male mice, 3 per group, electrical stimulation 1 hour after administration, inhibition of hind limb extension; for anticonvulsant action in maximum electroshock seizure (MES) model test: mice, oral 50 or 100 mg/kg, 1 hour after administration. In outline:
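Tonic hind-limb extension was elicited by corneal electroshock (60 Hz, 25 mA, 0.2 s) 1 h after oral dosing. Test compounds were given at 50 or 100 mg/kg to groups of 3 male Slc: ddY mice (20-30 g), vehicle controls receiving 0.5% tragacanth or 0.5% methylcellulose solution.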

Series [2] relates to subcutaneously pentetrazol-injected model (scPTZ). Briefly: Subcutaneously pentetrazol-injected model (scPTZ) test. Type of series: in vivo, mice. The settings on record: pentetrazol 85 mg/kg s.c. after 1 hour; for responders at 50 mg/kg / responders at 100 mg/kg: Mus musculus, po, 1 h, read-out: scPTZ (positive number/tested number) (converted); for responders at 50 mg/kg / responders at 100 mg/kg / scPTZ (positive number/tested number): Slc: ddY male mice, 3 per group, observed 30 minutes for clonic convulsion; for anticonvulsant action in subcutaneously pentetrazol-injected model (scPTZ) test: mice, oral 50 or 100 mg/kg. In outline: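 Pentetrazol (85 mg/kg, s.c.) was injected one hour after oral test compound at 50 or 100 mg/kg in groups of three male Slc:ddY mice weighing 20-30 g; vehicle controls got 0.5% tragacanth or 0.5% methylcellulose.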

For series [3], the system named is amygdala-kindling model. Briefly: Amygdala-kindling model in rats. Type of series: in vivo. The source says: Test 3: Test with Amygdala-Kindling Model in Rats
Test 3 evaluates the anticonvulsant action of medicaments in rats, besides mice in Tests 1 and 2. Animal model (kindling model) used herein is a very similar model to clinical findings of focal onset seizures (i.e. simple partial seizure, complex partial seizure, and secondarily generalized tonic-clonic seizure), which is known to provide excellent clinical prediction. A chronic electrode was implanted in the cortex (frontal and posterior regions) and the amygdala of Slc: Wistar male rats (body weight 250-300 g). One week after the above operation, electrical stimulation (50 Hz, 400 μA, 1 second) into the amygdala was conducted once a day for about two weeks. The stimulation condition was determined according to the method of Loscher et al. [Epilepsy Res., 40: 63-77 (2000)]. The stimulation was continued until the seizure stage 5 in the seizure severity stages according to the method of Racine et al. [Motor seizure. Electroenceph. Clin. Neurophysiol., 32:281-294 (1972)] was observed 10 consecutive times. Kindling model was thus completed. Then, test compounds (100 mg/kg) were orally administered to this model. After an hour of administration, the rats were evaluated based on three parameters, i.e., a threshold stimulus current to induce seizure (i.e. seizure threshold), the duration of afterdischrage observed on an electroencephalogram, and seizure severity (stage scores 1-5). The results of the seizure threshold and the afterdischarge duration were shown as average percentage of change from the pretreatment value obtained before the administration of each test compound. To the control rats, 0.5% tragacanth solution was administered. Minus means decreased or shortened.

In series [4] the test system is 6 Hz psychomotor seizure model. The experiment in a line: 6 Hz psychomotor seizure model. The settings on record: mice; for ED50: 6 Hz psychomotor seizure model, read-out: ED50; for ED50 / 6 Hz (Positive number/tested number): oral; for 6 Hz (Positive number/tested number): dose 100 mg/kg, 30 minutes or 1 hour after administration. Type of series: in vivo, mice. Here is the method: Test 4: Test of 6 Hz Psychomotor Seizure Model
Similar to Tests 1 and 2, Test 4 evaluates the anticonvulsant action of medicaments. However, unlike Tests 1 and 2, the animal model used herein represents clinical phenotypes of seizures resistant to existing antiepileptic drugs. […] After 30 minutes or an hour of administration, their corneas were electrically stimulated (6 Hz, 32 mA, 3 seconds) to induce symptoms of myoclonus in their forelimbs, Straub tail, and immobility. […] To the control mice, 0.5% tragacanth solution, 0.5% methylcellulose solution, or olive oil was administered.

In series [5] the test system is Slc: ddY male mice. The experiment in a line: Rotarod performance test (motor disturbance). Particulars: 1 hour after administration, 10 mice. Type of series: in vivo. The procedure: Test 5: Rotarod Performance Test
Test 5 evaluates whether motor disturbance is caused by medicaments. On the day before the test, Slc: ddY male mice (body weight 20-30 g) were trained so that they could walk on a rotarod apparatus for 3 minutes without falling, wherein a cylinder of 4 cm diameter is rotated with a speed of 13 rotations per minute. Test compounds were orally administered to a group consisting of 10 mice. […] When the mice fell down within 100 seconds because of disturbed motor coordination, such mice were counted as positive. To the control mice, 0.5% methylcellulose solution was administered.
On the technique in general: The rotarod test checks motor coordination on a turning rod.

The subject of series [6] is Crl: CD (SD) male rats. Briefly: Evaluation of antidepressant effect (forced swimming, duration of immobility). Type of series: in vivo. Particulars: same conditions. The source says:
(§1) Meanwhile, there are no reports about animal models which provide a good clinical prediction to evaluate the improving efficacy for bipolar disorder. However, bipolar disorder comprises “manic state” and “depressive state”, and some animals are reported to be useful as a model to evaluate the improvement of each pathological condition individually. In general, an index of manic state is excessive hyperactivity induced by administering methamphetamine and chlordiazepoxide in combination, and that of depressive state is immobility induced by forced swimming.
Test 6: Evaluation of Antidepressant Effect
Test 6 is a typical test to evaluate the antidepressant activity of medicaments (Porsolt et al., Nature, 266: 730-732, 1977, Porsolt et al., Eur. J. Pharmacol., 47: 379-391, 1978). Crl: CD (SD) male rats (12 rats in each group, body weight 200-250 g) were forced to swim for 15 minutes in a water pool with 200 mm diameter. In the pool, water was filled up to a depth of 205 mm from the bottom of the pool, and thus the rats could not touch the bottom of the pool with their hind limbs. Fifteen minutes after the completion of the forced swimming, test compounds were orally administered to the rats. On the next day, the test compounds were administered to the rats at the same dose as the previous day, and the rats were put in the pool for 5 minutes at the same clock time as the previous day. […] The antidepressant effect was evaluated by calculating how long the duration of immobility was shortened against the control. To the control, 0.5% methylcellulose solution was administered.

Series [7] relates to Slc: C57BL/6J male mice. The experiment in a line: Evaluation of antimanic effect (methamphetamine and chlordiazepoxide induced hyperactivity, locomotor distance). Type of series: in vivo. The settings on record: same conditions.
Source text: as §1
Test 7: Evaluation of Antimanic Effect
Test 7 evaluates the antimanic effect of medicaments. The evaluation system is a test system whose utility has been already confirmed with a known antimanic agent which is clinically used as a mood-stabilizing drug, not as a drug for treating schizophrenia (Arban et al., Behay. Brain Res., 158:123-132, 2005, Foreman et al., Pharmacol. Biochem. Behay., 89: 523-534, 2008). Test compounds were orally administered to Slc: C57BL/6J male mice (8 mice in each group, body weight 20-26 g). After 30 minutes of administration, methamphetamine (4 mg/kg) and chlordiazepoxide (10 mg/kg) were administered intraperitoneally. Then, the mice were allowed to move freely in an acrylic cage (W 360 mm×D 230 mm×H 310 mm) for 90 minutes. The locomotor distances of the mice were measured with Ethovision software (Ver. 3.1). Among the 90 minutes, the result of the latter 60 minutes with the exception of the first 30 minute's result for adaptation to the new environment was used as data of the locomotor distance. The antimanic effect was evaluated by calculating how long locomotor distance was shortened against the control. To the control mice, 0.5% methylcellulose solution was administered.

Where [8] appears, read: oral administration at a dose of 100 mg/kg.

SMILES strings stand for the structures. Like-named read-outs stand apart in the source and are kept apart here.

One may read the ED50 as the dose that gives a 50% effect, or the effect in half of the subjects.

Regarding `NC(=O)Cc1ccccc1-c1cccc(F)c1` [Example 25, 2-(3′-fluorobiphenyl-2-yl)acetamide], the responders at 50 mg/kg in series [1] (50 mg/kg oral) and in series [2] (50 mg/kg oral) was 100% each time. The responders at 100 mg/kg in series [1] (100 mg/kg oral) and in series [2] (100 mg/kg oral) was 100% each time. Besides, in series [1], the “anticonvulsant action in maximum electroshock seizure (MES) model test” value is “anticonvulsant action was observed”. Further, the “anticonvulsant action in subcutaneously pentetrazol-injected model (scPTZ) test” value in series [2] was “anticonvulsant action was observed”. Moreover, the “Seizure threshold (uA) Δ % change” value in series [3] (100 mg/kg oral, 1 hour after administration, average percentage of change from pretreatment value) worked out at 69.4%. For the same compound, in series [3] (100 mg/kg oral, 1 hour after administration, change from pretreatment value, minus means shortened), the “Afterdischarge duration (sec) Δ % change” value is on record as −100%. This compound also had a Seizure severity score in series [3] (100 mg/kg oral, 1 hour after administration, stage scores 1-5) of 0.0. For the same compound, the “efficacy against the amygdala-kindling model” value in series [3] (setting [8]) is reported as “potent efficacy”. Moreover, the ED50 in series [4] (Mus musculus) amounted to 61.9 mg/kg. Further, the “efficacy in 6 Hz psychomotor seizure model” value in series [4] (setting [8]) is on record as “potent efficacy”. Moreover, the “6 Hz (Positive number/tested number)” value in series [4] is 10/10/100. The “The rate of mice which fell within 100 seconds (%)” value (shortened to “The rate … (%)”) in series [5] (100 mg/kg oral) is 0%; in series [5] (200 mg/kg oral) it was 10%; in series [5] (300 mg/kg oral), 60%; in series [5] (400 mg/kg oral) it was 90%.
`NC(=O)Cc1cc(F)ccc1-c1ccccc1F` [Example 46, 2-(2′,4-difluorobiphenyl-2-yl)acetamide]: the values for the responders at 50 mg/kg in series [1] (50 mg/kg oral) and in series [2] (50 mg/kg oral) were 66.7% and 0%, respectively. The responders at 100 mg/kg in series [1] (100 mg/kg oral) and in series [2] (100 mg/kg oral) was 100% in each case. Also, the ED50 in series [4] (Mus musculus) was determined as 120 mg/kg. Besides, in series [4], the “6 Hz (Positive number/tested number)” value is 5/10/100. The “The rate … (%)” value came out at 20% in series [5] (100 mg/kg oral), 20% in series [5] (200 mg/kg oral), 60% in series [5] (300 mg/kg oral) and 90% in series [5] (400 mg/kg oral).
With `NC(=O)Cc1ccccc1-c1cc(Cl)cc(Cl)c1` [Example 71, 2-(3′,5′-dichlorobiphenyl-2-yl)acetamide], the responders at 50 mg/kg in series [1] (50 mg/kg oral) and in series [2] (50 mg/kg oral) was 66.7% in each case. Moreover, the values for the responders at 100 mg/kg in series [1] (100 mg/kg oral) and in series [2] (100 mg/kg oral) were 100% and 66.7%, respectively. Besides, in series [1], the “anticonvulsant action in maximum electroshock seizure (MES) model test” value is “anticonvulsant action was observed”. The “anticonvulsant action in subcutaneously pentetrazol-injected model (scPTZ) test” value in series [2] was “anticonvulsant action was observed”. In addition, the ED50 in series [4] (Mus musculus) turned out to be 82.8 mg/kg. Also, the “6 Hz (Positive number/tested number)” value in series [4] is given as 7/10/100. The “The rate … (%)” value in series [5] (100 mg/kg oral) came to 0%; in series [5] (200 mg/kg oral), 20%; in series [5] (300 mg/kg oral), 30%; in series [5] (400 mg/kg oral), 70%.
Take `NC(=O)[C@@H](O)c1ccccc1-c1ccccc1` [Example 208, 2-(biphenyl-2-yl)-2S-hydroxyacetamide]: the figures for the “MES (positive number/tested number)” value in series [1] (50 mg/kg oral) and in series [1] (100 mg/kg oral) were 2/3 and 3/3, respectively. Besides, the “scPTZ (positive number/tested number)” value in series [2] (50 mg/kg oral) is given as 1/3; in series [2] (100 mg/kg oral), 2/3. Further, the ED50 in series [4] came out at 90.6 mg/kg. Moreover, the “6 Hz (Positive number/tested number)” value in series [4] is 7/10/100.
As to `Nc1nnc(-c2cccc(Cl)c2Cl)c(N)n1` [Lamotrigine, reference compound], in series [6], the duration of immobility result is “dose-dependently shortened”. Also, the locomotor distance entry in series [7] is “dose-dependently shortened”.
